Measurements: patent US20250255845A1, “USE OF INTERLEUKIN (IL)-17A INHIBITOR IN PREPARATION OF MEDICAMENT FOR TREATING INFLAMMATORY DISEASE” (Xiangnan University, priority 2024, published 2025)

Experiments:
PCNA = assay: Immunohistochemistry of PCNA in dorsal skin of IMQ-induced psoriasis mice; type: in vivo, Balb/c mice; details: preventive and therapeutic administration groups; dose-dependent
Description: (§1) Balb/c mice (female, 6-8 weeks, 20+2 g), with certificate number [SCXK (Xiang) 2021-0002], were purchased from Hunan SJA Laboratory Animal (Changsha, China). All mice were housed in an specific pathogen free (SPF)-grade animal room with a 12 h light/12 h dark cycle, and experiments were started after the mice were acclimated for one week. Next, 96 mice were randomly divided into 12 groups (8 mice/group), including Control group, Control solvent (white vaseline) group, IMQ group, IMQ solvent (white vaseline) group, preventive administration of positive medicament Clo group (IMQ+Clo 55 mg), therapeutic administration of positive medicament group (IMQ+Clo (A) 55 mg), preventive administration of Tan low-dose group (IMQ+Tan 40 μg/cm^2), medium-dose group (IMQ+Tan160 μg/cm^2), and high-dose group (IMQ+Tan 640 μg/cm^2), and therapeutic administration of Tan low-dose group (IMQ+Tan (A) 40 μg/cm^2), medium-dose group (IMQ+Tan (A) 160 μg/cm^2), and high-dose group (IMQ+Tan (A) 640 μg/cm^2). After the mice were anesthetized, a 2 cm×3 cm area on the back was selected for hair removal. Modeling began 48 h after hair removal, and all modeling mice were applied with 65 mg (55 mg on the back and 5 mg on each ear) of IMQ cream every morning for 10 d. […]

IL-17A = assay: Immunohistochemistry of IL-17A in dorsal skin of IMQ-induced psoriasis mice; type: in vivo, Balb/c mice; details: preventive and therapeutic administration groups; dose-dependent
Description: as §1

[1] = tested on: IMQ-induced psoriasis mice; assay: Dorsal skin lesions of IMQ-induced psoriasis mice; type: in vivo, Balb/c mice
Description: Balb/c mice (female, 6-8 weeks, 20+2 g), with certificate number [SCXK (Xiang) 2021-0002], were purchased from Hunan SJA Laboratory Animal (Changsha, China). All mice were housed in an specific pathogen free (SPF)-grade animal room with a 12 h light/12 h dark cycle, and experiments were started after the mice were acclimated for one week. Next, 96 mice were randomly divided into 12 groups (8 mice/group), including Control group, Control solvent (white vaseline) group, IMQ group, IMQ solvent (white vaseline) group, preventive administration of positive medicament Clo group (IMQ+Clo 55 mg), therapeutic administration of positive medicament group (IMQ+Clo (A) 55 mg), preventive administration of Tan low-dose group (IMQ+Tan 40 μg/cm^2), medium-dose group (IMQ+Tan160 μg/cm^2), and high-dose group (IMQ+Tan 640 μg/cm^2), and therapeutic administration of Tan low-dose group (IMQ+Tan (A) 40 μg/cm^2), medium-dose group (IMQ+Tan (A) 160 μg/cm^2), and high-dose group (IMQ+Tan (A) 640 μg/cm^2). After the mice were anesthetized, a 2 cm×3 cm area on the back was selected for hair removal. Modeling began 48 h after hair removal, and all modeling mice were applied with 65 mg (55 mg on the back and 5 mg on each ear) of IMQ cream every morning for 10 d. In the Tan preventive administration groups, the low-dose group (40 μg/cm^2), the medium-dose group (160 μg/cm^2), and the high-dose group (640 μg/cm^2) were topically administered to the back and ears every afternoon starting from the first day of modeling for 10 d. In the Tan therapeutic administration groups, the low-dose group (40 μg/cm^2), the medium-dose group (160 μg/cm^2), and the high-dose group (640 μg/cm^2) were topically administered to the back and ears every afternoon starting from the 3rd day of modeling for 10 d. The mice in the preventive positive medicament group received Clo (55 mg/mouse, 45 mg on the back, 5 mg on each ear) treatment from the first day of modeling, and the mice in the therapeutic positive medicament group received Clo (55 mg/mouse, 45 mg on the back, 5 mg on each ear) treatment from the third day of modeling.

p-STAT3 (Ser 727) = assay: Western blot of p-STAT3 (Ser 727) in LPS-induced RAW264.7 cells; type: cell-based, mouse
Description: (§2) RAW264.7 cell culture: mouse mononuclear macrophages (RAW264.7, ATCC) are cultured in a complete medium containing 10% fetal bovine serum (FBS), 1% double antibodies (penicillin and streptomycin), and 89% DMEM at 37° C. and 5% CO2. In this experiment, RAW264.7 cells from passages 3 to 8 are used for related test.
(§3) LPS (100 ng/ml) is added for stimulation, with or without Tan, and the cell supernatant is collected to detect the contents of NO, IL-23, IL-17A, TNF-α, and IL-6 in the cell supernatant. The cell lysate is collected and the protein expressions (STAT3, p-STAT3 (Ser727), and p-STAT3 (Tyr705)) are detected by Western blot. Total cell RNA is extracted and real-time fluorescence quantitative polymerase chain reaction (PCR) is conducted to detect the expression levels of IL-23, IL-17A, TNF-α, and IL-6 mRNA.
RAW264.7 cells in the logarithmic growth phase were inoculated in 100 mm culture dishes, and the cell density was adjusted to 1.6×10^6 cells/dish. After cultured for 24 h, different concentrations (5, 10, 20, 40 μM) of Tan were added to allow pretreatment for 2 h, and LPS (100 ng/ml) was added to allow incubation for 24 h. The original medium was removed, and the cells were washed 2 times with pre-cooled PBS buffer. Then, protein lysis buffer (300 μL per dish) was added for lysis on ice for 30 min. The supernatant was collected by centrifugation at 4° C., 12,000 rpm for 5 min, and the protein concentration was determined by BCA method. Next, 60 μg of total protein sample was loaded, separated by 10% Sodium Dodecyl Sulfate Polyacrylamide Gel Electrophoresis (SDS-PAGE) gel, and transferred to Polyvinylidene Fluoride (PVDF) membrane by electrophoresis. The membrane was blocked with 5% skim milk at room temperature for 1 h, and 3 mL of GAPDH, STAT3, p-STAT3 (Ser727), and p-STAT3 (Tyr705) antibodies were added and incubated overnight at 4°° C. […] Enhanced Chemiluminescence (ECL) color development was used for detection, and protein band quantification was performed using Image J software.

IL-17A mRNA = assay: Real-time fluorescence quantitative PCR, LPS-induced IL-17A mRNA in RAW264.7 cells; type: cell-based, mouse
Description: as §2, §3
RAW264.7 cells were inoculated into 6-well plate and the cell density was adjusted to 5.0×10^6 cells/well. After cultured for 24 h, the cells were stably adhered to the wall. The original medium was removed and different concentrations (5, 10, 20, 40 μM) of Tan were added to allow pretreatment for 1 h. LPS (100 ng/mL) was added and continued to be incubated for 24 h. The commercial TRlcom lysis buffer provided by Jianshi Biotech was added to extract total RNA from cells using the centrifugal column method and immediately reverse transcribed into c-DNA. The fluorescence intensity of each sample was detected according to the instructions of the real-time fluorescence quantitative PCR kit and specific primers (Table 1) (cycle conditions: enzyme activation 95° C. for 3 min, 1 cycle; denaturation 95° C. for 15 s, annealing/extension 60° C. for 1 min, 40 cycles). The mRNA expression level of each group was normalized with the GAPDH expression level, and the relative expression of mRNA was calculated using the 2^−ΔΔCt method.

p-STAT3 = assay: Immunohistochemistry of p-STAT3 in dorsal skin of IMQ-induced psoriasis mice; type: in vivo, Balb/c mice; details: preventive and therapeutic administration groups; dose-dependent
Description: as §1

endothelial cells = details: CN101947215A; cited from earlier work

With `COc1ccc(-c2cc(=O)c3c(OC)c(OC)c(OC)c(OC)c3o2)cc1` [Tan, tangeretin] the “expression level of PCNA in the dorsal skin” value (PCNA) was “significantly reduced”, the “expression level of IL-17A in the dorsal skin” value (IL-17A) was “significantly reduced” and the “improvement of dorsal skin lesions compared with positive control Clo” value ([1]; high-dose (640 μg/cm^2) preventive and therapeutic groups) was “comparable to that of the positive control Clo”. For the same molecule, the “erythema and scaling of dorsal skin” value ([1]; preventive and therapeutic topical administration, 40/160/640 μg/cm^2, vs IMQ group, dose-dependent) was “significant reduction in erythema and scaling”, the “scales and erythema on the dorsal skin” value ([1]; preventive group (from first day of modeling)) was “almost disappeared” and the “back scales after treatment” value ([1]; therapeutic group (from 3rd day of modeling)) was “only a minimal amount of back scales remained”. The “suppression of p-STAT3 (Ser 727) relative to p-STAT3 (Tyr 705)” value (p-STAT3 (Ser 727)) was “more pronounced suppression”, the “suppression of STAT3 phosphorylation (Ser 727) compared with positive control Clo” value (p-STAT3 (Ser 727); 40 μM) was “comparable efficacy to the positive control” and the “expression of p-STAT3 (Ser 727) protein” value (p-STAT3 (Ser 727); 5-40 μM, vs LPS group, P<0.001, dose-dependent) was “inhibited”. The “inhibitory effect on IL-17A (FIG. 5B)” value (IL-17A mRNA) was “strong inhibitory effect”, the “inhibitory effect on IL-17A mRNA compared with positive control Clo” value (IL-17A mRNA; 40 μM) was “comparable to that of the positive control Clo” and the “relative expression level of IL-17A mRNA” value (IL-17A mRNA; 5-40 μM, 24 h, vs LPS, P<0.001, dose-dependent) was “significantly decreased”. The “expression level of p-STAT3 in the dorsal skin” value (p-STAT3) was “significantly reduced” and the “proliferation of endothelial cells / angiogenesis” value (endothelial cells) was “inhibit the proliferation of endothelial cells”.
